ChEMBL document CHEMBL3045487, “Bioactivity guided isolation of antiinflammatory, analgesic, and antipyretic constituents from the leaves of Pedilanthus tithymaloides (L.)” (Med Chem Res, 2013)

Columns and labels:
Mus musculus [1] = assay: Toxicity in Swiss albino Mus musculus (mouse) assessed as abdominal constriction up to 100 mg/kg, po measured up to 24 hr relative to control; assay type: organism-based, Abdomen; set-up: dose 100 mg/kg, route oral; conditions: in vivo
Mus musculus [2] = assay: Toxicity in Swiss albino Mus musculus (mouse) assessed as tremors up to 100 mg/kg, po measured up to 24 hr relative to control; assay type: organism-based; set-up: dose 100 mg/kg, route oral; conditions: in vivo
Mus musculus [3] = assay: Toxicity in Swiss albino Mus musculus (mouse) assessed as lethargy up to 100 mg/kg, po measured up to 24 hr relative to control; assay type: organism-based; set-up: dose 100 mg/kg, route oral; conditions: in vivo
Mus musculus [4] = assay: Toxicity in Swiss albino Mus musculus (mouse) assessed as presence of secretions up to 100 mg/kg, po measured up to 24 hr relative to control; assay type: organism-based; set-up: dose 100 mg/kg, route oral; conditions: in vivo
Mus musculus [5] = assay: Anti-inflammatory activity in Swiss albino Mus musculus (mouse) assessed as inhibition of cotton pellet-induced granuloma formation at 10 mg/kg, po administered QD for 5 days measured at 1 hr post-last dose relative to control; assay type: functional
Mus musculus [6] = assay: Toxicity in Swiss albino Mus musculus (mouse) assessed as diarrhea up to 100 mg/kg, po measured up to 24 hr relative to control; assay type: organism-based; set-up: dose 100 mg/kg, route oral; conditions: in vivo
Mus musculus [7] = assay: Toxicity in Swiss albino Mus musculus (mouse) assessed as effect on mobility up to 100 mg/kg, po measured up to 24 hr relative to control; assay type: organism-based; set-up: dose 100 mg/kg, route oral; conditions: in vivo
Mus musculus [8] = assay: Toxicity in Swiss albino Mus musculus (mouse) assessed as weight loss up to 100 mg/kg, po measured up to 24 hr relative to control; assay type: organism-based; set-up: dose 100 mg/kg, route oral; conditions: in vivo
Mus musculus [9] = assay: Toxicity in Swiss albino Mus musculus (mouse) assessed as mortality up to 100 mg/kg, po measured up to 72 hr; assay type: organism-based; set-up: dose 100 mg/kg, route oral; conditions: in vivo
Mus musculus [10] = assay: Toxicity in Swiss albino Mus musculus (mouse) assessed as ataxia up to 100 mg/kg, po measured up to 24 hr relative to control; assay type: organism-based; set-up: dose 100 mg/kg, route oral; conditions: in vivo
Mus musculus [11] = assay: Toxicity in Swiss albino Mus musculus (mouse) assessed as convulsions up to 100 mg/kg, po measured up to 24 hr relative to control; assay type: organism-based; set-up: dose 100 mg/kg, route oral; conditions: in vivo
Mus musculus [12] = assay: Anti-inflammatory activity in Swiss albino Mus musculus (mouse) assessed as inhibition of carrageenan-induced paw edema at 10 mg/kg, ip administered 30 min prior to carrageenan-challenge measured after 3 to 4 hr relative to control; assay type: functional; conditions: route intraperitoneal
Rattus norvegicus [13] = assay: Antipyretic activity in Wistar albino Rattus norvegicus (rat) assessed as brewer's yeast-induced rectal tempeRattus norvegicus (rat)ure at 150 mg/kg, po measured at 23 hr (reference value: 39.1+/- 0.18 degC); assay type: functional
Rattus norvegicus [14] = assay: Antipyretic activity in Wistar albino Rattus norvegicus (rat) assessed as brewer's yeast-induced rectal tempeRattus norvegicus (rat)ure at 150 mg/kg, po measured at 22 hr (reference value: 39.1+/- 0.18 degC); assay type: functional
Rattus norvegicus [15] = assay: Antipyretic activity in Wistar albino Rattus norvegicus (rat) assessed as brewer's yeast-induced rectal tempeRattus norvegicus (rat)ure at 150 mg/kg, po measured at 20 hr (reference value: 39.1+/- 0.18 degC); assay type: functional
Rattus norvegicus [16] = assay: Antipyretic activity in Wistar albino Rattus norvegicus (rat) assessed as brewer's yeast-induced rectal tempeRattus norvegicus (rat)ure at 150 mg/kg, po measured at 19 hr (reference value: 39.3 +/- 0.11 degC); assay type: functional
Rattus norvegicus [17] = assay: Antipyretic activity in Wistar albino Rattus norvegicus (rat) assessed as brewer's yeast-induced rectal tempeRattus norvegicus (rat)ure at 150 mg/kg, po measured at 21 hr (reference value: 39.1+/- 0.18 degC); assay type: functional
Rattus norvegicus [18] = assay: Antipyretic activity in Wistar albino Rattus norvegicus (rat) assessed as brewer's yeast-induced rectal tempeRattus norvegicus (rat)ure at 10 mg/kg, po measured at 19 hr (reference value: 39.3 +/- 0.11 degC); assay type: functional
Rattus norvegicus [19] = assay: Antipyretic activity in Wistar albino Rattus norvegicus (rat) assessed as brewer's yeast-induced rectal tempeRattus norvegicus (rat)ure at 10 mg/kg, po measured at 21 hr (reference value: 39.1+/- 0.18 degC); assay type: functional
Rattus norvegicus [20] = assay: Antipyretic activity in Wistar albino Rattus norvegicus (rat) assessed as brewer's yeast-induced rectal tempeRattus norvegicus (rat)ure at 10 mg/kg, po measured at 23 hr (reference value: 39.1+/- 0.18 degC); assay type: functional
Rattus norvegicus [21] = assay: Antipyretic activity in Wistar albino Rattus norvegicus (rat) assessed as brewer's yeast-induced rectal tempeRattus norvegicus (rat)ure at 10 mg/kg, po measured at 20 hr (reference value: 39.1+/- 0.18 degC); assay type: functional
Rattus norvegicus [22] = assay: Antipyretic activity in Wistar albino Rattus norvegicus (rat) assessed as brewer's yeast-induced rectal temperature at 10 mg/kg, po measured at 22 hr (reference value: 39.1+/- 0.18 degC); assay type: functional
Mus musculus [23] = assay: Antinociceptive activity in Swiss albino Mus musculus (mouse) assessed as inhibition of acetic acid-induced writhing at 10 mg/kg, po administered 1 hr prior to acetic acid-challenge measured up to 20 min relative to control; assay type: functional
Mus musculus [24] = assay: Antinociceptive activity Swiss albino Mus musculus (mouse) assessed as inhibition of formalin-induced paw licking at 10 mg/kg, po administered 30 min prior to formalin-challenge measured from 15 to 30 min relative to control; assay type: functional
Mus musculus [25] = assay: Antinociceptive activity Swiss albino Mus musculus (mouse) assessed as inhibition of formalin-induced paw licking at 10 mg/kg, po administered 30 min prior to formalin-challenge measured up to 5 min relative to control; assay type: functional
Mus musculus [26] = assay: Antinociceptive activity Swiss albino Mus musculus (mouse) assessed as inhibition of formalin-induced paw licking at 10 mg/kg, po administered 60 min prior to formalin-challenge measured from 15 to 30 min relative to control; assay type: functional
Mus musculus [27] = assay: Antinociceptive activity Swiss albino Mus musculus (mouse) assessed as inhibition of formalin-induced paw licking at 10 mg/kg, po administered 60 min prior to formalin-challenge measured up to 5 min relative to control; assay type: functional
Mus musculus [28] = assay: Anti-inflammatory activity in Swiss albino Mus musculus (mouse) assessed as inhibition of carrageenan-induced paw edema at 10 mg/kg, ip administered 30 min prior to carrageenan-challenge measured after 5 hr relative to control; assay type: functional; conditions: route intraperitoneal
Mus musculus [29] = organism: Mus musculus; assay: animal or person; conditions: Swiss albino, po, read-out: INH
Description: Antinociceptive activity Swiss albino Mus musculus (mouse) assessed as inhibition of formalin-induced paw licking at 5 mg/kg, po administered 30 min prior to formalin-challenge measured from 15 to 30 min relative to control

Mus musculus [30] = organism: Mus musculus; assay: animal or person; conditions: Swiss albino, po, read-out: INH; remark: listed apart in the source
Description: Antinociceptive activity Swiss albino Mus musculus (mouse) assessed as inhibition of formalin-induced paw licking at 5 mg/kg, po administered 30 min prior to formalin-challenge measured up to 5 min relative to control

CCCCCCCCCCCCC(O)COS(=O)(=O)[O-].[Na+] (stereo unspecified)
Activity (Mus musculus [1]): Non-toxic | Activity (Mus musculus [2]): Non-toxic | Activity (Mus musculus [3]): Non-toxic | Activity (Mus musculus [4]): Non-toxic | inhibition in vivo at 10 mg/kg (Mus musculus [5]): 12.9% | Activity (Mus musculus [6]): Non-toxic | Activity (Mus musculus [7]): Non-toxic | Activity (Mus musculus [8]): Non-toxic | Activity (Mus musculus [9]): Non-toxic | Activity (Mus musculus [10]): Non-toxic | Activity (Mus musculus [11]): Non-toxic | inhibition in vivo at 10 mg/kg (Mus musculus [12]): 33.3%

CC(=O)Nc1ccc(O)cc1 [ACETAMINOPHEN]
T (Rattus norvegicus [13]): 37.7 °C | T (Rattus norvegicus [14]): 37.9 °C | T (Rattus norvegicus [15]): 38 °C | T (Rattus norvegicus [16]): 39.6 °C | T (Rattus norvegicus [17]): 38 °C

CC[C@H](CC[C@@H](C)[C@H]1CC[C@H]2[C@@H]3CC=C4C[C@@H](O)CC[C@]4(C)[C@H]3CC[C@]12C)C(C)C [BETA-SITOSTEROL]
Activity (Mus musculus [1]): Non-toxic | T (Rattus norvegicus [18]): 39.6 °C | Activity (Mus musculus [2]): Non-toxic | Activity (Mus musculus [3]): Non-toxic | T (Rattus norvegicus [19]): 38.1 °C | T (Rattus norvegicus [20]): 37.9 °C | Activity (Mus musculus [4]): Non-toxic | inhibition in vivo at 10 mg/kg (Mus musculus [5]): 30.4% | Activity (Mus musculus [6]): Non-toxic | Activity (Mus musculus [7]): Non-toxic | Activity (Mus musculus [8]): Non-toxic | T (Rattus norvegicus [21]): 38.1 °C | Activity (Mus musculus [9]): Non-toxic | Activity (Mus musculus [10]): Non-toxic | T (Rattus norvegicus [22]): 38 °C | Activity (Mus musculus [11]): Non-toxic

O=C(O)Cc1ccccc1Nc1c(Cl)cccc1Cl [DICLOFENAC SODIUM]
inhibition in vivo at 10 mg/kg (Mus musculus [23]): 90.9% | inhibition in vivo at 10 mg/kg (Mus musculus [24]): 97.6% | inhibition in vivo at 10 mg/kg (Mus musculus [25]): 20.1%

CC(=O)O[C@H]1CC[C@@H]2[C@](C)(CC[C@H]3[C@@]2(C)CC[C@@]2(C)[C@H]4CC(C)(C)CC[C@]4(C)CC[C@]32C)[C@H]1C [EPIFRIEDELANYL ACETATE]
Activity (Mus musculus [1]): Non-toxic | Activity (Mus musculus [2]): Non-toxic | Activity (Mus musculus [3]): Non-toxic | Activity (Mus musculus [4]): Non-toxic | inhibition in vivo at 10 mg/kg (Mus musculus [5]): 24.9% | Activity (Mus musculus [6]): Non-toxic | Activity (Mus musculus [7]): Non-toxic | Activity (Mus musculus [8]): Non-toxic | Activity (Mus musculus [9]): Non-toxic | Activity (Mus musculus [10]): Non-toxic | Activity (Mus musculus [11]): Non-toxic | inhibition in vivo at 10 mg/kg (Mus musculus [12]): 30.6%

C[C@H]1[C@H](O)CC[C@@H]2[C@]1(C)CC[C@H]1[C@@]2(C)CC[C@@]2(C)[C@H]3CC(C)(C)CC[C@]3(C)CC[C@]12C [FRIEDELANOL]
Activity (Mus musculus [1]): Non-toxic | Activity (Mus musculus [2]): Non-toxic | inhibition in vivo at 10 mg/kg (Mus musculus [23]): 45.8% | Activity (Mus musculus [3]): Non-toxic | inhibition in vivo at 10 mg/kg (Mus musculus [26]): 42.9% | Activity (Mus musculus [4]): Non-toxic | inhibition in vivo at 10 mg/kg (Mus musculus [27]): 35.7% | inhibition in vivo at 10 mg/kg (Mus musculus [5]): 29.2% | Activity (Mus musculus [6]): Non-toxic | Activity (Mus musculus [7]): Non-toxic | Activity (Mus musculus [8]): Non-toxic | Activity (Mus musculus [9]): Non-toxic | Activity (Mus musculus [10]): Non-toxic | Activity (Mus musculus [11]): Non-toxic | inhibition in vivo at 10 mg/kg (Mus musculus [12]): 36.1%

COc1ccc2c(c1)c(CC(=O)O)c(C)n2C(=O)c1ccc(Cl)cc1 [INDOMETHACIN]
inhibition in vivo at 10 mg/kg (Mus musculus [28]): 61.1% | inhibition in vivo at 10 mg/kg (Mus musculus [5]): 45.5%

O=c1cc(-c2ccc(O)c(O)c2)oc2cc(O)cc(O)c12 [LUTEOLIN]
Activity (Mus musculus [1]): Non-toxic | inhibition in vivo at 10 mg/kg (Mus musculus [28]): 50% | Activity (Mus musculus [2]): Non-toxic | inhibition in vivo at 10 mg/kg (Mus musculus [23]): 55.4% | Activity (Mus musculus [3]): Non-toxic | inhibition in vivo at 10 mg/kg (Mus musculus [26]): 48.6% | Activity (Mus musculus [4]): Non-toxic | inhibition in vivo at 10 mg/kg (Mus musculus [27]): 40.3% | inhibition in vivo at 10 mg/kg (Mus musculus [5]): 37% | Activity (Mus musculus [6]): Non-toxic | Activity (Mus musculus [7]): Non-toxic | Activity (Mus musculus [8]): Non-toxic | Activity (Mus musculus [9]): Non-toxic | Activity (Mus musculus [10]): Non-toxic | Activity (Mus musculus [11]): Non-toxic

CN1CC[C@]23c4c5ccc(O)c4O[C@H]2[C@@H](O)C=C[C@H]3[C@H]1C5 [MORPHINE]
inhibition in vivo at 5 mg/kg (Mus musculus [29]): 100% | inhibition in vivo at 5 mg/kg (Mus musculus [30]): 68%

C[C@H]1[C@H](C)CC[C@]2(C(=O)O)CC[C@]3(C)C(=CC[C@@H]4[C@@]5(C)CC[C@H](O)C(C)(C)[C@@H]5CC[C@]43C)[C@H]12 [URSOLIC ACID]
Activity (Mus musculus [1]): Non-toxic | Activity (Mus musculus [2]): Non-toxic | inhibition in vivo at 10 mg/kg (Mus musculus [23]): 50.3% | Activity (Mus musculus [3]): Non-toxic | inhibition in vivo at 10 mg/kg (Mus musculus [26]): 61.4% | Activity (Mus musculus [4]): Non-toxic | inhibition in vivo at 10 mg/kg (Mus musculus [27]): 43.6% | inhibition in vivo at 10 mg/kg (Mus musculus [5]): 38.5% | Activity (Mus musculus [6]): Non-toxic | Activity (Mus musculus [7]): Non-toxic | Activity (Mus musculus [8]): Non-toxic | Activity (Mus musculus [9]): Non-toxic | Activity (Mus musculus [10]): Non-toxic | Activity (Mus musculus [11]): Non-toxic
